# Measured values as given in US11390625B2, “Aryl-phosphorus-oxygen compound as EGFR kinase inhibitor” (Chia Tai Tianqing Pharmaceutical Group Co., Ltd., priority 2017, dated 2022).
# Tests used:
# [1] = system: Ba/F3 (EGFR Δ19del/T790M/C797S) cells; experiment: Anti-proliferation experiment on cells (2), Ba/F3 (EGFR Δ19del/T790M/C797S); assay type: cell-based; settings: for IC50: Ba/F3 EGFR, 72 h, Ba/F3 cells, 3 days, read-out: anti-proliferation effect on cells Ba/F3(Δ19del/T790M/C797S) IC50
# Experimental: The compounds ware transferred to a 384-well plate, with 125 nL of compound per well. […] After 3 days, 25 μL of detection reagent was added. The plate was incubated at room temperature for 10 minutes and then read with Envision.
# [2] = target: EGFR (Δ19del/T790M/C797S) (Homo sapiens, UniProt P00533, C797S/T790M, form not given); experiment: Enzyme activity experiment (1): EGFR (Δ19del/T790M/C797S) enzyme inhibition; assay type: biochemical; settings: read-out: EGFR (Δ19del/T790M/C797S) IC50
# Experimental: 1) 10 μL of the compounds to be tested and reference compounds diluted to 10 mM were taken into an Echo LDV plate, which were diluted according to the compound profile with Echo.
# 1) 1×enzyme reaction buffer was prepared: 1× enzyme buffer, 5 mM MgCl2, 1 mM DTT (dithiothreitol), water.
# 2) A mixed solution of 10 nM enzyme (final concentration of 5 nM) and 2 μM substrate (final concentration of 1 μM) and a solution containing the substrate alone were prepared with the diluted enzyme reaction buffer.
# 3) 5 μL of the substrate was added into A1-H1, J24-P24 (the number of the well position), and 5 μL of the mixture of the enzyme and substrate was added into the remaining wells.
# 4) Centrifugation was performed at 1000 rpm at 23° C. for 30 s.
# 5) Incubation was performed at 23° C. for 15 min.
# 7) Centrifugation was performed at 1000 rpm at 23° C. for 30 s.
# 8) Incubation was performed at 23° C. for 60 min.
# 9) 10 μL of 250 nM TK Antibody-Crypate (a final concentration of 125 nM) and 1×D2 (a final concentration ½ time) prepared with Detection buffer were added.
# 10) Centrifugation was performed at 1000 rpm at 23° C. for 30 s.
# 11) Incubation was performed at 23° C. for 60 min.
# 12) The data was read with Envision, and the ratio was calculated to obtain the IC50 of the compound for inhibiting the enzyme activity.
# [3] = system: Ba/F3 (Δ19del/T790M/C797S) xenograft; experiment: In vivo efficacy (1): Ba/F3 (Δ19del/T790M/C797S) subcutaneous xenograft (CDX) in BALB/c nude mice;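 also: female nude mice, dosing begun at mean tumor size near 80–120 mm^3, tumors measured by caliper twice weekly, volume in mm^3 computed as 0.5×long×short diameter squared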
# Experimental: BALB/c nude mice, female, 6-8 weeks old, 18-20 g of body weight, were housed in SPF-grade environment, and each cage was individually ventilated (5 mice per cage). […] A total of 48 mice purchased from Beijing Weitonglihua company were used for the study. Each mouse was implanted with cells at the right flank, for tumor growth. The experiment was started when the average tumor volume reached approximately 80-120 mm^3. […] Tumor volume was measured twice a week with a two-dimensional caliper, measured in mm^3 and calculated by the following formula: V=0.5a×b^2, wherein a and b are the long and short diameters of the tumor, respectively. Antitumor efficacy was determined by dividing the average increase of the tumor volume of the animals treated with the compound by the average increase of the tumor volume of the untreated animals.
# [4] = system: pEGFR Ba/F3 (EGFR Δ19del/T790M/C797S) cells; experiment: Cell phosphorylation inhibition experiment, pEGFR Ba/F3 (EGFR Δ19del/T790M/C797S); assay type: cell-based; settings: for IC50: Ba/F3 EGFR, Ba/F3 cells, EGF stimulated, read-out: Effect on cellular EGFR phosphorylation Ba/F3(Δ19del/T790M/C797S) IC50
# Experimental: The test compounds and reference compounds were diluted with 100% DMSO to 10 mM or 1 mM, and then a gradient dilution was performed by using Echo, 150 nL per well, with a three-fold concentration gradient and a ten-point dose response curve. The final concentration of the compounds was 100 μM or 10 μM. The suspension cells was centrifuged at 1000 rp for 5 minutes, suspend in Hanks' balanced salt solution, and added to a 384-well plate containing the compounds at 10 L/120K/well (the cell density of 1.2×10^7), followed by centrifugation at 1200 rpm for 30 s and incubation at 37° C. for 30 min. 5 μL of EGF (which has been diluted with 0.1% BSA Hanks' balanced salt solution) was added to each well, in which the final concentration of EGF was 1 μM. The plate was centrifuged at 1200 rpm for 30 s and incubated at 37° C. for 20 min. 5 μL of 4× lysis buffer containing blocking solution was added to each well, and then the plate was centrifuged at 1200 rpm for 30 s, and incubated at 37° C. for 30 min.
# Sequence of EGFR (Δ19del/T790M/C797S) (P00533 25-1210 T790M/C797S limits assumed, form open): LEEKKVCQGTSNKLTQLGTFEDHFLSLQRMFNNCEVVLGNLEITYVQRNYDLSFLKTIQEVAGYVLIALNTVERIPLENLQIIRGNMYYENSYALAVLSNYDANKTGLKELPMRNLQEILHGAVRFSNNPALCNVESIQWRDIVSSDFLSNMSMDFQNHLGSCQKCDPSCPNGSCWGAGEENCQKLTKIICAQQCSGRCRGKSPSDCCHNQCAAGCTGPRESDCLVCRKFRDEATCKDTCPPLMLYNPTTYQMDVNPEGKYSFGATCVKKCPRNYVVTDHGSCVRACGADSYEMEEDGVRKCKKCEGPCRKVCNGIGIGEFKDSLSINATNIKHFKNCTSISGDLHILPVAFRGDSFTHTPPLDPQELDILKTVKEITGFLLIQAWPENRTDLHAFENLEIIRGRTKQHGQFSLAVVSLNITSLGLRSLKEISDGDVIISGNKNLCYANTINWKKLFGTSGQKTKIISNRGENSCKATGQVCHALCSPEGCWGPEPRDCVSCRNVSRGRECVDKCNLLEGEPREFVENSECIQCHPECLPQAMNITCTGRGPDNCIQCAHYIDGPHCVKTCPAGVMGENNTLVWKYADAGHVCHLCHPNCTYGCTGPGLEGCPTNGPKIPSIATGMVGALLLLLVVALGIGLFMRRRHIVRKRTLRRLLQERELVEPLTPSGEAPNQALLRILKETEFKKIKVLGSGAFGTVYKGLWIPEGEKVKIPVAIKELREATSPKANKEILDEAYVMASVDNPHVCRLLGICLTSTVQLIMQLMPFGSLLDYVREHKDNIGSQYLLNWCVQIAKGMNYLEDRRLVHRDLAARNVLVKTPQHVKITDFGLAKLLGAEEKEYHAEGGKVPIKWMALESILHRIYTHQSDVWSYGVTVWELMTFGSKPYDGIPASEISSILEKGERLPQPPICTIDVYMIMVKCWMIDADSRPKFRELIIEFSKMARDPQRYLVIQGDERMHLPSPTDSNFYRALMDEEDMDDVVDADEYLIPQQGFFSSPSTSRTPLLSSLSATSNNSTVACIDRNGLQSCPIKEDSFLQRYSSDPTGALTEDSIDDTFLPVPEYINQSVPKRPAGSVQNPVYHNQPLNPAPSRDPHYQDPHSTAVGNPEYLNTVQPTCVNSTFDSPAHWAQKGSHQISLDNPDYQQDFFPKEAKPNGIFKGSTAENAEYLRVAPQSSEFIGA
Structure (SMILES),IC50 [1] [nM],also measured
COc1cc(N2CCC(N3CCN(C)CC3)CC2)ccc1Nc1ncc(Cl)c(Nc2ccc3c(c2P(C)(C)=O)CCC3)n1 [Compound 35],533,–
COc1cc(N2CCC3(CC2)CN(CCO)C3)c(C)cc1Nc1ncc(Cl)c(Nc2ccc3ccccc3c2P(C)(C)=O)n1 [Compound 30],290,–
COc1cc(N2CCC3(CC2)CN(C)C3)c(C)cc1Nc1ncc(OC(=O)N(C)C)c(Nc2ccc3ccccc3c2P(C)(C)=O)n1 [Compound 17],4750,IC50 [2]: 856 nM
COc1cc(N2CCC(N3CCN(C)CC3)CC2)ccc1Nc1ncc(Cl)c(Nc2ccc3scnc3c2P(C)(C)=O)n1 [Compound 42],442,–
"COc1cc(N2CCC(N3CCN(C)CC3)CC2)ccc1Nc1ncc(Cl)c(Nc2ccccc2P(C)(C)=O)n1 [Birgatinib, reference compound]",–,"TGI (the tumor inhibition value) ([3]; 15 mg/kg oral daily, 13 consecutive days): 8.6%; Tumor volume Day 0 ([3]; 15 mg/kg/day oral, Day 0): 84 mm^3; Tumor volume Day 2 ([3]; 15 mg/kg/day oral, Day 2): 124 mm^3; Tumor volume Day 5 ([3]; 15 mg/kg/day oral, Day 5): 292 mm^3; Tumor volume Day 8 ([3]; 15 mg/kg/day oral, Day 8): 477 mm^3; Tumor volume Day 10 ([3]; 15 mg/kg/day oral, Day 10): 646 mm^3; Tumor volume Day 12 ([3]; 15 mg/kg/day oral, Day 12): 880 mm^3; Tumor volume Day 13 ([3]; 15 mg/kg/day oral, Day 13): 965 mm^3"
COc1cc(N2CCC3(CC2)CN(C)C3)c(C)cc1Nc1ncc(Cl)c(Nc2ccc3nccnc3c2P(C)(C)=O)n1 [Compound 8],275,IC50 [2]: 0.792 nM; IC50 [4]: 133 nM
COc1cc(N2CCC(N3CCN(C)CC3)CC2)ccc1Nc1ncc(Br)c(Nc2ccc3c(c2P(C)(C)=O)CCC3)n1 [Compound 38],371,–
COc1cc(N2CCC3(CC2)CN(CCN(C)C)C3)c(C)cc1Nc1ncc(Cl)c(Nc2ccc3ccccc3c2P(C)(C)=O)n1 [Compound 20],214,IC50 [2]: < 0.0508 nM
COc1cc(N2CCC3(CC2)CN(C(C)C)C3)c(C)cc1Nc1ncc(Cl)c(Nc2ccc3sccc3c2P(C)(C)=O)n1 [Compound 31],242,–
COc1cc(N2CCC(N3CCN(C)CC3)CC2)ccc1Nc1ncc(Cl)c(Nc2ccc3cccnc3c2P(C)(C)=O)n1 [Compound 7],–,IC50 [4]: 533 nM
COc1cc(N2CCC(N3CCN(C)CC3)CC2)ccc1Nc1ncc(Cl)c(Nc2ccc3cccnc3c2P(C)(C)=O)n1 [Compound 43],496,–
COc1ccc(OCCNS(C)(=O)=O)cc1Nc1ncc(Cl)c(Nc2ccc3ccccc3c2P(C)(C)=O)n1 [Compound 29],1590,IC50 [2]: 67.6 nM
COc1cc(N2CCC(N(C)C)CC2)c(C)cc1Nc1ncc(Br)c(Nc2ccc3nccnc3c2P(C)(C)=O)n1 [Compound 44],–,IC50 [4]: 9 nM
COc1cc(N2CCC3(CCN(C)CC3)CC2)c(Cl)cc1Nc1ncc(Cl)c(Nc2ccc3c(c2P(C)(C)=O)C(=O)CC3)n1 [Compound 14],351,–
"COc1cc(N2CCC(N3CCN(C)CC3)CC2)ccc1Nc1ncc(Cl)c(Nc2ccc3[nH]cnc3c2P(C)(C)=O)n1 [Comparative Example 1, reference compound]",> 5000,inhibitory effect on Ba/F3 cells with three mutations (EGFR Δ19del/T790M/C797S) ([1]; in words): almost no inhibitory effect; IC50 [4]: 1010 nM; inhibitory effect on the phosphorylation of Ba/F3 (Δ19del/T790M/C797S) cells ([4]; in words): almost no inhibitory effect
COc1cc(N2CCC3(CC2)CN(C)C3)c(C)cc1Nc1nc(Nc2ccc3ccccc3c2P(C)(C)=O)c2cc[nH]c2n1 [Compound 22],249,–
COc1cc(N2CCC3(CC2)CN(C)C3)c(C)cc1Nc1ncc(C#N)c(Nc2ccc3ccccc3c2P(C)(C)=O)n1 [Compound 26],764,IC50 [2]: 0.679 nM
COc1cc(N2CCC3(CC2)CN(C)C3)c(C)cc1Nc1ncc(C2CC2)c(Nc2ccc3ccccc3c2P(C)(C)=O)n1 [Compound 25],642,IC50 [2]: 1.79 nM
COc1cc(N2CCC3(CC2)CN(C)C3)c(C)cc1Nc1ncc(C(C)=O)c(Nc2ccc3ccccc3c2P(C)(C)=O)n1 [Compound 24],4080,–
COc1cc(N2CCC3(CC2)CN(C)C3)c(C)cc1Nc1ncc(-c2nnc(C)o2)c(Nc2ccc3ccccc3c2P(C)(C)=O)n1 [Compound 27],2710,–
COc1cc(N2CCC3(CC2)CN(C)C3)c(C)cc1Nc1ncc(Cl)c(Nc2ccc3c(ccn3C)c2P(C)(C)=O)n1 [Compound 15],583,–
COc1cc(N2CCC3(CCN(C)CC3)CC2)c(Cl)cc1Nc1ncc(Cl)c(Nc2ccc3cccnc3c2P(C)(C)=O)n1 [Compound 10],6030,–
COc1cc(N2CCC3(CCN(C)CC3)CC2)c(Cl)cc1Nc1ncc(Cl)c(Nc2ccc3sccc3c2P(C)(C)=O)n1 [Compound 1],–,IC50 [2]: 2.64 nM
COc1ccc(OCCNCc2cccnc2)cc1Nc1ncc(Cl)c(Nc2ccc3ccccc3c2P(C)(C)=O)n1 [Compound 19],1220,IC50 [2]: 12.9 nM
COc1ccc(OCCNCc2cnccn2)cc1Nc1ncc(Cl)c(Nc2ccc3ccccc3c2P(C)(C)=O)n1 [Compound 18],1650,IC50 [2]: 25.3 nM

# Further lines, with some results ahead:
IC50 [1] [nM],Structure (SMILES),also measured
187,COc1cc(N2CCC3(CC2)CN(CCN(C)C)C3)c(C)cc1Nc1ncc(Cl)c(Nc2ccc3nccnc3c2P(C)(C)=O)n1 [Compound 39],IC50 [4]: 195 nM
87,COc1cc(N2CCN(C)CC2)c(C)cc1Nc1ncc(Br)c(Nc2ccc3nccnc3c2P(C)(C)=O)n1 [Example 45],IC50 [4]: 27 nM
211,COc1cc(N2CCC3(CC2)CN(C)C3)c(C)cc1Nc1ncc(Cl)c(Nc2ccc3c(c2P(C)(C)=O)CCC3)n1 [Compound 16],IC50 [2]: 0.491 nM
26.8,COc1cc(N2CCC3(CCN(C)CC3)CC2)c(C)cc1Nc1ncc(Br)c(Nc2ccc3nccnc3c2P(C)(C)=O)n1 [Example 57],–
39,COc1cc(N2CCC(N3CCN(C)CC3)CC2)c(Cl)cc1Nc1ncc(Br)c(Nc2ccc3nccnc3c2P(C)(C)=O)n1 [Example 54],–
103,COc1cc(N2CCC3(CC2)CN(C)C3)c(C)cc1Nc1ncc(Br)c(Nc2ccc3ccccc3c2P(C)(C)=O)n1 [Compound 23],IC50 [2]: 0.0517 nM; IC50 [4]: 34 nM
36,COc1cc(N2CCC(N3CCN(C)CC3)CC2)c(C)cc1Nc1ncc(Br)c(Nc2ccc3scnc3c2P(C)(C)=O)n1 [Example 51],–
180,COc1cc(N2CCC(N3CCN(C)CC3)CC2)c(Cl)cc1Nc1ncc(Cl)c(Nc2ccc3ccccc3c2P(C)(C)=O)n1 [Compound 11],–
162,COc1cc(N2CCC3(CC2)CN(C(C)C)C3)c(C)cc1Nc1ncc(Br)c(Nc2ccc3ccccc3c2P(C)(C)=O)n1 [Compound 33],–
79,CCc1cc(Nc2ncc(Br)c(Nc3ccc4ccccc4c3P(C)(C)=O)n2)c(OC)cc1N1CCC2(CC1)CN(C)C2 [Compound 32],IC50 [4]: 57 nM
18.6,CCc1cc(Nc2ncc(Br)c(Nc3ccc4nccnc4c3P(C)(C)=O)n2)c(OC)cc1N1CCC2(CCN(C)CC2)CC1 [Example 58],–
152,COc1cc(N2CCC(N3CCN(C)CC3)CC2)c(C)cc1Nc1ncc(C)c(Nc2ccc3nccnc3c2P(C)(C)=O)n1 [Example 48],–
